Laboratory results reported in patent US20250332173A1, “COMPOUNDS AND METHODS FOR MODULATING NUCLEIC ACID SPLICING” (REMIX THERAPEUTICS INC., priority 2021, published 2025).
pIC50: −log10 of the molar value. Read-outs that look alike come from different tables or passages of the source.

Legend:
[1] = tested on: SMN2 mRNA; test: RT-qPCR splicing assay, SMN2 canonical junction (CJ) mRNA; format: cell-based, human; settings: Homo sapiens
Procedure, shortened: (§1)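 Exposure: 24 h, 37 °C, 11-point 3-fold dilutions from 10 uM final, DMSO at or below 0.25%, in A673 or K562 cells. Detection: cell-lysate RT-qPCR of canonical junction mRNA relative to GAPDH, GUSB or PPIA.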

[2] = tested on: Target C; test: RT-qPCR splicing assay panel, Target C canonical junction (CJ) mRNA; format: cell-based, human; settings: Homo sapiens
Procedure, shortened: as §1

[3] = tested on: HTT; test: HiBiT protein abundance assay, HTT HiBiT K562 cell line; format: cell-based, human; settings: 24 hours, top dose 10 μM
Procedure, shortened: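 Tagged-protein abundance measured by split-NanoBiT luminescence after lysis, following 24 h compound exposure (37° C; 10 μM top, 3-fold, 10 points; DMSO ≤0.25%) of HiBiT knock-in K562 cells. Percent response vs DMSO and unmodified-cell controls; 4-parameter logistic interpolation at 50% gave IC50.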

[4] = tested on: K562 (human chronic myelogenous leukemia) cells; test: Cell Titer Glo 2.0 cell viability assay; format: cell-based; settings: Homo sapiens, K562, 72 h, K562 cells, 72 hours, Cell Titer Glo 2.0; read-out: K562 GI50
[5] = Table 5 panel, canonical junction qPCR, compound concentration having 50% response in CJ decrease, read-out: SMN2 IC50 (decrease in CJ mRNA levels)
[6] = Table 5 panel, canonical junction qPCR, compound concentration having 50% response in CJ decrease, read-out: Target C IC50 (decrease in CJ mRNA levels)
[7] = HiBiT K562 cell line, read-out: Effect on protein abundance, HTT (IC50 category)
[8] = canonical junction qPCR panel, Table 5, read-out: SMN2 (decrease in CJ mRNA levels, IC50)
[9] = canonical junction qPCR panel, Table 5, read-out: Target C (decrease in CJ mRNA levels, IC50)
[10] = HiBiT lytic detection, modified K562 cells, read-out: Effect on protein abundance, HTT (IC50)

SMILES	pIC50 [1, 5]	pIC50 [2, 6]	pIC50 [3, 7]	GI50 [4] [µM]	pIC50 [1, 8]	pIC50 [2, 9]	pIC50 [3, 10]
Cc1cn2cc(-c3ccc4c(c3)CCN(C3CCNCC3)C4=O)nc2c(C)n1 [Compound 221, 6-[6,8-dimethylimidazo[1,2-a]pyrazin-2-yl]-2-(piperidin-4-yl)-3,4-dihydroisoquinolin-1-one]	6.00 to 7.00	< 5.00	< 5.00	1 to 10	–	–	–
Cc1c(O)c(-c2ncc3c(=O)n([C@@H]4CCN[C@@H](C)C4)ccc3n2)cc2cn(C)nc12 [Compound 1462, 2-(6-hydroxy-2,7-dimethyl-indazol-5-yl)-6-[(2S,4R)-2-methyl-4-piperidyl]pyrido[4,3-d]pyrimidin-5-one]	–	–	> 7.00	< 0.1	> 7.00	6.00 to 7.00	–
Cn1cc2cc(-c3ncc4c(=O)n(C56CCC(N)(CC5)C6)ccc4n3)c(O)c(F)c2n1 [Compound 1468]	–	–	–	< 0.1	> 7.00	6.00 to 7.00	6.00 to 7.00
Cc1cn2nc(-n3cnc4ccc(N5CCNCC5)cc4c3=O)cc(C)c2n1 [Compound 2201]	–	–	–	> 10	< 5.00	< 5.00	< 5.00
Cc1cn2nc(-c3ccc4c(=O)n([C@H]5CC(C)N[C@@H](C)C5)ncc4n3)cc(C)c2n1 (stereo in doubt) [Compound 1538, 2-(2,8-dimethylimidazo[1,2-b]pyridazin-6-yl)-6-[(2S,6S)-2,6-dimethyl-4-piperidyl]pyrido[2,3-d]pyridazin-5-one]	–	–	6.00 to 7.00	0.1 to 1	6.00 to 7.00	6.00 to 7.00	–
Cc1cn2cc(-c3ccc4c(=O)n(C5CCNCC5)cnc4c3F)cc(F)c2n1 [Compound 210]	6.00 to 7.00	5.00 to 6.00	5.00 to 6.00	0.1 to 1	–	–	–
Cc1cc(-c2nc3cc(N4CCNCC4)ccc3c(=O)[nH]2)cc2cn(C)nc12 [Compound 2213]	–	–	–	1 to 10	< 5.00	< 5.00	< 5.00
Cc1c(O)c(-c2ncc3c(=O)n([C@@H]4CC[C@@H](N)C4)ccc3n2)cc2cn(C)nc12 [Compound 1476, 6-[(1R,3R)-3-aminocyclopentyl]-2-(6-hydroxy-2,7-dimethyl-indazol-5-yl)pyrido[4,3-d]pyrimidin-5-one]	–	–	–	0.1 to 1	> 7.00	5.00 to 6.00	6.00 to 7.00
CN(c1ccc2ncn(-c3cc(F)c4nn(C)cc4c3)c(=O)c2c1)C1CCNCC1 [Compound 2198]	–	–	–	> 10	< 5.00	< 5.00	< 5.00
Cc1cn2cc(-n3cnc4ccc(N5CCN(C)CC5)cc4c3=O)cc(F)c2n1 [Compound 2197]	–	–	–	1 to 10	5.00 to 6.00	5.00 to 6.00	5.00 to 6.00
Cc1cc(-c2cc(F)c3c(=O)n(C4CCN(C)CC4)cnc3c2)cc2cn(C)nc12 [Compound 233]	> 7.00	5.00 to 6.00	6.00 to 7.00	0.1 to 1	–	–	–
Cc1cc(-c2ccc3c(=O)[nH]c(N4CCNCC4)nc3c2)cc2cn(C)nc12 [Compound 2211]	–	–	–	> 10	< 5.00	< 5.00	< 5.00
Cc1nc2c(F)cc(-c3ccc4c(c3)CCN(C3CCNCC3)C4=O)cc2o1 [Compound 215]	> 7.00	5.00 to 6.00	6.00 to 7.00	1 to 10	–	–	–
Cc1cn2cc(-n3cnc4cc(N5CCN(C)CC5)ccc4c3=O)cc(F)c2n1 [Compound 229]	< 5.00	< 5.00	< 5.00	> 10	–	–	–
Cc1cn2nc(-c3ccc4c(=O)n(C5CCN(CC6CC6)C6(CC6)C5)ncc4n3)cc(C)c2n1 (stereo not drawn) [Compound 1543, 6-[4-(cyclopropylmethyl)-4-azaspiro[2.5]octan-7-yl]-2-(2,8-dimethylimidazo[1,2-b]pyridazin-6-yl)pyrido[2,3-d]pyridazin-5-one]	–	–	–	0.1 to 1	> 7.00	6.00 to 7.00	> 7.00
Cn1cc2cc(-c3ncc4c(=O)n(C56CCC(N)(CC5)C6)ccc4n3)c(O)cc2n1 [Compound 1470]	–	–	–	0.1 to 1	> 7.00	5.00 to 6.00	5.00 to 6.00
Cc1cn2cc(-c3ccc4c(c3)CCN(C3CCNCC3)C4=O)cc(C)c2n1 [Compound 217, 6-[2,8-dimethylimidazo[1,2-a]pyridin-6-yl]-2-(piperidin-4-yl)-3,4-dihydroisoquinolin-1-one]	6.00 to 7.00	< 5.00	6.00 to 7.00	1 to 10	–	–	–
Cc1c(O)c(-c2ncc3c(=O)n([C@@H]4C[C@H]5COC[C@@H](C4)N5)ccc3n2)cc2cn(C)nc12 [Compound 1471]	–	–	–	0.1 to 1	> 7.00	6.00 to 7.00	6.00 to 7.00
